# Reference: ChEMBL document CHEMBL1144331, “Uric acid may inhibit glucose-induced insulin secretion via binding to an essential arginine residue in rat pancreatic beta-cells” (2005)
# Columns and labels:
# Rattus norvegicus [1] = experiment: Insulin release in rat pancreatic beta-cells after 15 minutes of administration of the NH4-salt of compound at 1 mM was measured; assay type: functional
# Rattus norvegicus [2] = experiment: Insulin release in rat pancreatic beta-cells after 15 minutes of administration of the K-salt of compound at 1 mM was measured; assay type: functional
# Rattus norvegicus [3] = experiment: Insulin release in rat pancreatic beta-cells after 15 minutes of administration at 1 mM was measured; assay type: functional
# Rattus norvegicus [4] = species: Rattus norvegicus; experiment: Acid dissociation constant was determined
# Rattus norvegicus [5] = experiment: Insulin release in rat pancreatic beta-cells after 15 minutes of administration of the Na-salt of compound at 1 mM was measured; assay type: functional
# Rattus norvegicus [6] = experiment: Insulin release in rat pancreatic beta-cells (PBS-rinsing of the islets) after 15 minutes of administration at 1 mM was measured; assay type: functional
SMILES,Insulin release (Rattus norvegicus [3]) [ng/islet/h],further results
Oc1nc(O)c2nc(O)[nH]c2n1 [URIC ACID],1.65,Insulin release (Rattus norvegicus [1]): 1.66 ng/islet/h; Insulin release (Rattus norvegicus [2]): 1.68 ng/islet/h; pKa (Rattus norvegicus [4]): 5.4; Insulin release (Rattus norvegicus [5]): 1.7 ng/islet/h
Cn1c(O)nc2[nH]c(=O)[nH]c(=O)c21,8.04,
Cn1c(=O)[nH]c2[nH]c(=O)[nH]c2c1=O,7.92,
O=c1[nH]cnc2nc[nH]c12 [HYPOXANTHINE],8.44,
NC(N)N.O=C1NC(O)Nc2[nH]c(O)nc21 (stereo not drawn),8.39,
Cn1c(O)nc2c1C(=O)NC(O)N2.NC(N)N (stereo not drawn),8.55,
O=C1NC(=O)C(O)(O)C(=O)N1,0.39,
Cn1c(=O)c2[nH]c(=O)[nH]c2n(C)c1=O,8.48,
CN1C(=O)c2nc(O)[nH]c2NC1O.NC(N)N (stereo not drawn),8.75,
O=c1[nH]c(=O)c2nn[nH]c2[nH]1,7.92,
O=C(O)c1nc(=O)[nH]c(=O)[nH]1 [OTERACIL],8.26,
O=c1[nH]c(=O)c2nc[nH]c2[nH]1 [XANTHINE],3.5,pKa (Rattus norvegicus [4]): 7.7; Insulin release (Rattus norvegicus [6]): 7.72 ng/islet/h
